In a compilation of properties of binary mixtures (doi:10.1016/j.jct.2016.12.008):

Experiment: xn = mol fraction of the nth substance listed
Details: 100 kPa

O + CC[n+]1ccn(C)c1.N#C[S-]
x1 = 1
Details | viscosity [mPa·s]
288.15 K | 1.13
298.15 K | 0.89
308.15 K | 0.72
313.15 K | 0.65
318.15 K | 0.6

CC[n+]1ccn(C)c1.N#C[S-] + O
viscosity [mPa·s]
Details | 288.15 K | 293.15 K | 298.15 K | 303.15 K | 308.15 K | 313.15 K | 318.15 K
x2 = 0 | 34.24 | 27.9 | 22.68 | 19.09 | – | 14.18 | –
x2 = 0.1006 | 27.45 | – | 18.74 | 16.03 | 13.87 | – | 10.71
x2 = 0.1948 | 21.99 | 18.63 | 15.93 | – | – | 10.58 | –
x2 = 0.3026 | 18.6 | 15.74 | 13.44 | 11.61 | 10.14 | 8.93 | 7.94
x2 = 0.4011 | 15.07 | 12.81 | 10.99 | – | 8.39 | 7.43 | 6.62
x2 = 0.4979 | 12.4 | 10.43 | 8.94 | 7.77 | 6.83 | 6.07 | 5.43
x2 = 0.6043 | 9.2 | 7.9 | 6.85 | 6.01 | – | 4.74 | 4.26
x2 = 0.6887 | 7.15 | 6.17 | 5.38 | – | – | 3.74 | 3.35
x2 = 0.7981 | 4.7 | – | – | – | – | – | –
x2 = 0.9105 | 2.53 | – | 2.02 | 1.79 | 1.6 | – | 1.31
x2 = 0.9443 | – | 1.76 | 1.57 | 1.39 | 1.25 | 1.13 | 1.03
x2 = 0.9506 | 1.86 | 1.67 | 1.49 | 1.32 | 1.19 | – | 0.98
